Activity calls are given as the source filed them. The calls are words filed in the database; no cut-off is given here.

For test [1], the system named is SU-DHL-2. Description: Cytotoxicity against human SUDHL2 cells assessed as cell growth inhibition by MTT assay. It is filed as functional, cell-based. Background: Tetrazolium assays rely on reduction of a dye to a coloured formazan, in cell work by metabolically active cells.
Test [2] deals with HL-60. Description: Cytotoxicity against human HL-60 cells assessed as cell growth inhibition by MTT assay. It is filed as functional, cell-based.
The test system of test [3] is A549. In words: Cytotoxicity against human A549 cells assessed as cell growth inhibition by MTT assay. In kind it is functional, cell-based.
Test [4] in a line: Immunosuppressive activity in C57BL/6J mouse B-lymphocyte assessed as inhibition of LPS-induced cell proliferation at 0.3125 to 40 uM incubated for 72 hrs by flow cytometry analysis. It is filed as functional, cell-based. Conditions: dose 0.3125-40 µM. Background: A flow cytometer gives signals particle by particle.
The nature of test [5]: Cytotoxicity against human […] cells assessed as cell growth inhibition by MTT assay. In kind it is functional, cell-based.
The subject of test [6] is HepG2. Description: Cytotoxicity against human HepG2 cells assessed as cell growth inhibition by MTT assay. In kind it is functional, cell-based.
For test [7], the system named is SU-DHL-2. In words: Induction of apoptosis in human SUDHL2 cells assessed as early apoptotic cells at 10 uM measured by Annexin V-FITC/PI staining based flow cytometry assay (reference value: 4.52%). In kind it is functional.
The subject of test [8] is SU-DHL-2. Description: Induction of apoptosis in human SUDHL2 cells assessed as necrotic cells at 10 uM measured by Annexin V-FITC/PI staining based flow cytometry assay (reference value: 0.23%). It is filed as functional.
Test [9] concerns SU-DHL-2. Description: Induction of apoptosis in human SUDHL2 cells assessed as late apoptotic cells at 10 uM measured by Annexin V-FITC/PI staining based flow cytometry assay (reference value: 3.10%). In kind it is functional.
Test [10] concerns SU-DHL-2. Description: Induction of apoptosis in human SUDHL2 cells assessed as viable cells at 2 uM measured by Annexin V-FITC/PI staining based flow cytometry assay (reference value: 92.2%). Conditions: read-out: Activity. In kind it is functional.
The test system of test [11] is SU-DHL-2. Description: Induction of apoptosis in human SUDHL2 cells assessed as necrotic cells at 2 uM measured by Annexin V-FITC/PI staining based flow cytometry assay (reference value: 0.23%). It is filed as functional.
Test [12] has as its system SU-DHL-2. Description: Induction of apoptosis in human SUDHL2 cells assessed as early apoptotic cells at 2 uM measured by Annexin V-FITC/PI staining based flow cytometry assay (reference value: 4.52%). It is filed as functional.
Test [13] concerns SU-DHL-2. In words: Induction of apoptosis in human SUDHL2 cells assessed as late apoptotic cells at 2 uM measured by Annexin V-FITC/PI staining based flow cytometry assay (reference value: 3.10%). In kind it is functional.
The test system of test [14] is SU-DHL-2. In words: Induction of apoptosis in human SUDHL2 cells assessed as viable cells at 10 uM measured by Annexin V-FITC/PI staining based flow cytometry assay (reference value: 92.2%). In kind it is functional. Conditions: read-out: Activity.
Test [15] has as its system B-cell line. Description: Immunosuppressive activity in C57BL/6J mouse B-lymphocyte assessed as inhibition of LPS-induced cell proliferation incubated for 72 hrs by flow cytometry analysis. It is filed as functional, cell-based.

`CC(C)[C@@H](C)/C=C/[C@@H](C)[C@H]1CCC(=O)[C@]23CC(=O)C4=CC(=O)CC[C@]4(C)[C@H]2CC[C@]13C` [DANKASTERONE A]: the IC50 (in general, the midpoint of a concentration-inhibition curve) was 6.6 µM in test [1]; 3.8 µM in test [2]; 25 µM in test [3]; over 40 µM in test [5]; 12 µM in test [6]. Also, in test [4], the inhibition entry is “inactive”.

As for `CO[C@@H]1C=C2C=CC3=C4C(=O)C[C@H]([C@H](C)/C=C/[C@H](C)C(C)C)[C@@]4(C)CC[C@]3(O)[C@@]2(C)CC1`, the IC50 in test [1] was over 40 µM; in test [2], 25 µM; in [3] it was over 40 µM; in [5] it was over 40 µM; in test [6] it was over 40 µM. Besides, in test [4], the inhibition entry was “inactive”.

Regarding `CC(C)[C@@H](C)/C=C/[C@@H](C)[C@H]1CC(=O)C2=C3[C@H](O)[C@H]4O[C@]45C[C@@H](O)CC[C@]5(C)[C@@]3(O)CC[C@@]21C`, the inhibition result in [4] was “inactive”.

With `CO[C@@H]1C=C2[C@@H]3CC[C@H]([C@H](C)/C=C/[C@H](C)C(C)C)[C@@]3(C)C[C@H]3O[C@@]23[C@@]2(C)CC[C@H](O)C[C@]12O`, the IC50 is 0.4 µM in [1]; 6.1 µM in test [2]; 18 µM in [3]; 14 µM in [5]; 24 µM in [6]. The Activity was 15% in [7]; 4.02% in [8]; 54% in test [9]; 0.87% in test [11]; 6.67% in test [12]; 14.3% in test [13]. The viability at 2 µM in test [10] was 78.2%. In addition, in test [4], the inhibition entry was “inactive”. Moreover, the viability at 10 µM in [14] worked out at 26.9%.

With `CC(=O)O[C@@H]1C[C@]2(C)[C@@H]([C@H](C)/C=C/[C@H](C)C(C)(C)O)CC[C@H]2C2=CC(=O)[C@H]3CC(=O)CC[C@]3(C)[C@H]21`, the IC50 turned out to be 19 µM in [1]; 11 µM in [2]; 22 µM in [3]; 9.2 µM in test [5]; 25 µM in test [6]. Also, the inhibition entry in test [4] was “inactive”.

Turning to `CC(C)[C@@H](C)/C=C/[C@@H](C)[C@H]1CCC(=O)[C@]23CC(=O)[C@@H]4CC(=O)CC[C@]4(C)[C@H]2CC[C@]13C`, the inhibition entry in test [4] was “inactive”.

`COC1(OC)CC[C@@]2(C)[C@H](C1)C(=O)C=C1[C@@H]2[C@H](OC(C)=O)C[C@]2(C)[C@@H]([C@H](C)/C=C/C(C)C(C)(C)O)CC[C@@H]12` (single isomer, unassigned): the IC50 came out at 25 µM in test [1]; 8.3 µM in [2]; 13 µM in test [3]; 11 µM in test [5]; 29 µM in [6]. Moreover, the inhibition entry in test [4] is “inactive”.

Consider `CC(C)[C@@H](C)/C=C/[C@@H](C)[C@H]1CC[C@]2(O)C3=CC(=O)C4=CC(=O)CC[C@]4(C)[C@@]3(O)CC[C@]12C`, for which the IC50 in [1] stood at 7.5 µM; in test [2], 8.8 µM; in test [3], 31 µM; in [5] it was 30 µM; in test [6], 19 µM. The inhibition result in test [4] is “inactive”.

Turning to `C=C(CC[C@@H](C(=O)O)[C@H]1CC[C@H]2C3=C[C@@H](O)[C@@]45O[C@@H]4C(=O)C=C[C@]5(C)[C@H]3CC[C@]12C)C(C)C`, the 50% inhibitory concentration (IC50) in test [1] is 6.9 µM; in test [2] it was 7.3 µM; in [3], over 40 µM; in test [5], 13 µM; in [6], 24 µM. Further, the inhibition entry in test [4] was “inactive”.

Take `COc1cc([C@@H]2c3cc4c(cc3[C@@H](O[C@@H]3O[C@@H]5CO[C@@H](C)O[C@H]5[C@H](O)[C@H]3O)[C@H]3COC(=O)[C@H]23)OCO4)cc(OC)c1O` [ETOPOSIDE]: the IC50 in test [1] came out at 2.1 µM; in [2] it was 2.1 µM; in [3], 10 µM; in test [5], 52 µM; in test [6], 21 µM.

Consider `CC(C)[C@@H](C)/C=C/[C@@H](C)[C@H]1CC[C@@]2(O)C3=CC(=O)C4=CC(=O)CC[C@]4(C)[C@@]3(O)CC[C@]12C`, for which the inhibition entry in test [4] is “inactive”.

As for `COC(=O)[C@@]12CC[C@@]3(C)[C@]1(O)C(=O)C=C1[C@]4(O)CC[C@H]([C@H](C)/C=C/[C@H](C)C(C)C)[C@@]4(C)CC[C@@]13OO2`, the IC50 in [1], in test [2], in test [3], in test [5] and in test [6] was over 40 µM in each case. For the same molecule, the inhibition result in test [4] was “inactive”.

`C=C(CC[C@@H](C(=O)O)[C@H]1CC[C@H]2C3=C[C@@H](O)[C@@]45O[C@@H]4[C@H](O)[C@@H]4O[C@@H]4[C@]5(C)[C@H]3CC[C@]12C)C(C)C`: the IC50 in test [1], in [2], in [3], in [5] and in test [6] was over 40 µM in each case. In test [4], the inhibition result is “inactive”.

In the case of `COC(=O)[C@@]12CC[C@@]3(C)[C@]1(O)C(=O)C=C1[C@@]4(O)CC[C@H]([C@H](C)/C=C/[C@H](C)C(C)C)[C@@]4(C)CC[C@@]13OO2`, the IC50 was over 40 µM in test [1]; 32 µM in [2]; over 40 µM in test [3]; over 40 µM in [5]; over 40 µM in [6]. For the same molecule, the inhibition entry in [4] was “inactive”.

Turning to `CC(C)[C@@H](C)/C=C/[C@@H](C)[C@H]1CC(=O)C2=C3[C@H](O)[C@H]4O[C@]45C[C@@H](O)CC[C@]5(C)[C@H]3CC[C@@]21C`, the inhibition result in test [4] was “inactive”.

On to `CC(C)[C@@H](C)/C=C/[C@@H](C)[C@H]1C[C@@H](O)C2=C3C=CC4=CC(=O)CC[C@]4(C)[C@@]3(O)CC[C@@]21C`, for which the IC50 in test [1] was over 40 µM; in test [2] it was over 40 µM; in [3], over 40 µM; in test [5], over 40 µM; in test [6], over 40 µM; in test [15], 8.6 µM.

Consider `CC(C)[C@@H](C)/C=C/[C@@H](C)[C@H]1CC[C@]2(O)C3=CC(=O)[C@@H]4[C@@]5(O)CC[C@]4(C)[C@]3(CC[C@]12C)OC5=O`, for which, in [4], the inhibition result is “inactive”.

The record behind these values is ChEMBL document CHEMBL5370583, “Cytotoxic Ergosteroids from a Strain of the Fungus Talaromyces adpressus” (J Nat Prod, 2023).
